The values that follow come from patent publication US10759735B2, “Bridged bicyclic compounds and their derivatives as neuroprotective agents and methods of use thereof” (Florida Atlantic University Board of Trustees, priority 2018, dated 2020).

SMILES strings stand for the structures. “Also recorded” adds a separate entry of the source.

What all share (type): in vivo, Drosophila melanogaster
The subject of data set [1] is Drosophila larval muscle 6 resting membrane potential. Description: intracellular recording of resting membrane potential (RMP) during acute oxidative stress. To be noted: 1 nM with 2.25 mM H2O2 versus H2O2 alone. As to the method: FIGS. 8A and 8B are a pair of graphs showing that during acute oxidative stress, Drosophila larval muscle resting membrane potential (RMP) and EJP amplitude decline. […] 8B) EJP amplitude was recorded in the same larval preparations (n=5 per group). […] Data is presented as mean±SEM.
To ensure that the results obtained using compound 1 and resveratrol were not due to changes in the EJP, additional control experiments were performed, as previously described (Caplan et al. J. Neurophys. 109, 649-658). […] It was also observed that resting membrane potential (RMP) and EJP amplitude decline in larvae treated with H2O2 alone and H2O2 with 1 nM compound 1 (see FIGS. 8A. 8B).
All electrophysiological experiments were performed as previously described with the exception of the resistance of the intracellular electrodes (60-90 MΩ) (Caplan et al. J. Neurophys. 109, 649-658). Excitatory junction potentials (EJPs) were elicited via repetitive stimulation (0.3 ms pulses delivered suprathreshold at a frequency of 1 Hz) and measured until synaptic failure occurred, which was characterized by an EJP amplitude of <1 mV being recorded. Electrophysiological recordings from larval preparations were conducted in hemolymph-like 3 (HL3) saline containing 2.25 mM H2O2. […] HL3 saline containing 1.5 mM Ca^2+ and 20 mM Mg^2+ was used as the recording saline throughout this study. […]

The test system of data set [2] is excitatory junction potential (EJP) at the Drosophila NMJ. The data set is described as follows: control recordings of excitatory junction potential (EJP) shape and amplitude. To be noted: 1 nM, in the presence and absence of 2.25 mM H2O2, ten minutes after bath switch.
Source text: In all panels, the curved black line represents the average EJP in hemolymph-like saline (HL3) one minute before the recording bath was replaced with HL3 containing the drug alone or the drug and H2O2. The curved gray line represents the average EJP from the same larvae ten minutes after the bath was switched from HL3 saline to HL3 containing either the drug alone or the drug and H2O2.
Data set [3] relates to Drosophila larval neuromuscular junction synaptic transmission. The data set is described as follows: neuromuscular junction (NMJ) postsynaptic transmission assay: time to synaptic failure under acute oxidative stress (2.25 mM H2O2). To be noted: for EC50: Drosophila melanogaster, read-out: EC50 (half-maximal effective concentration) in protecting neurotransmission from H2O2 exposure, 2.25 mM H2O2 in HL3 saline, w1118 third instar larvae, from % maximal response of time to synaptic failure. From the text: Small molecule-mediated neuroprotection is an area of research that has important implications for several maladies such as migraine, Alzheimer's disease, and stroke. One promising method to measure the neuroprotective effects of various medicinal compounds against oxidative stress in D. melanogaster has been developed (Caplan et al. Journal of Neurophysiology, 2013, 109, 3, 649-658). In this phenotypic model, fly larvae have their synaptic transmission measured via electrical probes in the post-synaptic neuromuscular junction (NMJ). The time until synaptic failure is first measured to obtain a control. An oxidizing solution (2.25 mM of hydrogen peroxide) is then introduced to the tissue and the time to synaptic failure is again measured. Hydrogen peroxide greatly reduces the time to synaptic failure relative to the control by damaging neurons through oxidative stress. Once the time to synaptic failure has been established with hydrogen peroxide alone, then different compounds can be introduced at varying concentrations along with the hydrogen peroxide solution, and their effects on the time to synaptic failure are measured and compared to the two controls.
A series of compounds generated using the methods described herein were subjected to a neuromuscular junction (NMJ) postsynaptic transmission assay. Resveratrol was included as a neuroprotectant control. When a wash of hydrogen peroxide (2.25 mM) was introduced, the time to synaptic failure was shortened from approximately 150 min to approximately 40 min (FIG. 2). Introducing resveratrol at 25 nM restored the time to synaptic failure to approximately 150 min upon addition of hydrogen peroxide (2.25 mM).
To quantify tolerance of neurotransmission to acute oxidative stress, electrophysiological recordings from Drosophila larval preparations were conducted in a hemolymph-like 3 (HL3) saline containing 2.25 mM hydrogen peroxide (H2O2).
Wandering third instar larvae (≈110 hours old) from the fruit fly, Drosophila melanogaster, were utilized for all electrophysiological experiments described throughout this study. Larvae were reared at 25° C. on 12 h:12 h light-dark (LD) cycles in an incubator. Only w^1118 larvae were utilized in this study.
All electrophysiological experiments were performed as previously described with the exception of the resistance of the intracellular electrodes (60-90 MΩ) (Caplan et al. J. Neurophys. 109, 649-658). Excitatory junction potentials (EJPs) were elicited via repetitive stimulation (0.3 ms pulses delivered suprathreshold at a frequency of 1 Hz) and measured until synaptic failure occurred, which was characterized by an EJP amplitude of <1 mV being recorded. Electrophysiological recordings from larval preparations were conducted in hemolymph-like 3 (HL3) saline containing 2.25 mM H2O2. […] HL3 saline containing 1.5 mM Ca^2+ and 20 mM Mg^2+ was used as the recording saline throughout this study. HL3 has been utilized by other research groups to record EJPs.^20 Intracellular recordings of resting membrane potential were taken from Drosophila larval muscle 6.
All test compounds and H2O2 were applied to the Drosophila larval NMJ preparation as previously described by Caplan et al. (supra). However, the compounds utilized in the Caplan et al. work were dissolved in dimethyl sulfoxide (DMSO), whereas the compounds utilized in the present study are water-soluble at the concentrations used and thus were dissolved in ddH2O.
The statistics utilized in the vertical bar charts and line graphs were performed as previously described with the exception of the error bars being presented as mean±SEM instead of mean±SD. The EC50, or half maximal effective concentration, of each test compound was determined by plotting the logio(compound dose) against the corresponding average percentage of the maximal effectiveness, as previously described (Caplan et al. J. Neurophys. 109, 649-658).

`COc1cc(OC)cc(C2CC3C(OC(C)=O)C(C)=C(C)C2(C(=O)O)C3OC(C)=O)c1` (racemic) [compound 1, 7-(3,5-dimethoxyphenyl)-4,8-diacetoxy-2,3-dimethylbicyclo[3.2.1]oct-2-ene-1-carboxylic acid]: in data set [1], the “decline of resting membrane potential (RMP)” value is on record as “significantly slowed the decline of RMP”. In data set [2], the “acute effect on the shape or amplitude of the EJP” value is on record as “do not have a significant acute effect; also recorded: do not acutely affect”. Also, the “time until synaptic failure restored” value in data set [3] (0.5 nM, in the presence of hydrogen peroxide) stood at 80%. Also, in data set [3] (25 nM, H2O2 2.25 mM, wild-type fruit fly larvae), the “normal synaptic function maintained” value is 100%. The “time to synaptic failure compared to control and resveratrol-treated preparations” value in data set [3] (0.5-5 nM dosage range, 2.25 mM H2O2, P<0.001) is given as “significantly increased time to synaptic failure”. Further, in data set [3], the EC50 was ~0.21 nM. Besides, the “neuroprotection in screening of initial compounds” value in data set [3] (H2O2 2.25 mM, wild-type fruit fly larvae) is given as “potent neuroprotectants”. Moreover, the “neuroprotective effect compared to resveratrol across dosages” value in data set [3] (almost all dosages tested (0.5 nM to 25 nM)) is on record as “stronger neuroprotective effects”. Further, the “protection of synaptic transmission from acute oxidative stress” value in data set [3] (at a subnanomolar level) is listed as “protect synaptic transmission from acute oxidative stress”. In data set [3] (dose-response, 2.25 mM H2O2), the “dose dependence of neuroprotective effect” value is “dose-dependent manner”. Moreover, in data set [3] (doses as low as 500 pM, H2O2 exposure), the “neuroprotective effect at lowest dose” value is listed as “strong neuroprotective effects”. Also, the ion channel stabilization result in data set [3] (general statement ('appear to have'), no separate test described) was “ion channel stabilization effects”. In addition, in data set [3] (general statement, no separate test described), the toxicity result was “non-toxic”. Moreover, in data set [3] (low doses (0.5 nM and 1 nM)), the “time until synaptic failure compared to control larvae treated with 2.25 mM H2O2 only” value was “significantly increased the amount of time until synaptic failure”. The “neuroprotective effect compared to resveratrol” value in data set [3] (similar dosage of resveratrol, P<0.001) is on record as “stronger neuroprotective effects”.

As to `Oc1ccc(C=Cc2cc(O)cc(O)c2)cc1` [resveratrol, reference compound], in data set [2], the “acute effect on the shape or amplitude of the EJP” value is given as “do not have a significant acute effect; also recorded: do not acutely affect”. In data set [3] (25 nM with hydrogen peroxide 2.25 mM (H2O2 alone approx. 40 min, no H2O2 approx. 150 min)), the “time to synaptic failure” value was “approximately 150 min”. The “neuroprotectant activity from the dose curve” value in data set [3] (at the chosen dosages, unusual dose curve, EC50 not reliably determinable) is recorded as “does not act as a neuroprotectant”.

For `COc1cc(OC)cc(C2CC3C(O)C(C)=C(C)C2(C(=O)O)C3O)c1` (racemic) [compound 2, 7-(3,5-dimethoxyphenyl)-4,8-dihydroxy-2,3-dimethylbicyclo[3.2.1]oct-2-ene-1-carboxylic acid], the EC50 in data set [3] turned out to be 2.99 nM. Also, in data set [3] (higher doses, P<0.001), the “time to synaptic failure during H2O2 exposure compared to control preparations” value is recorded as “significantly increased time to synaptic failure”. Also, in data set [3] (low doses (0.1 nM and 0.5 nM)), the “time to failure during H2O2 exposure” value is on record as “did not prolong time to failure”. The “time to synaptic failure compared to control” value in data set [3] (only at the 5.0 nM dosage, 2.25 mM H2O2, P<0.001) is on record as “similarly increased time to synaptic failure”. In addition, in data set [3] (ratio of EC50 values), the “EC50 relative to compound 1” value was “over ten-fold higher”.
